# Experimental data reported in publication PMC9814219 (Communications Chemistry, 2020).
# Key:
# aAbPPO4 = target: T1, aAbPPO4 (Agaricus bisporus, UniProt C7FF05); assay: activity on dopamine after pre-incubation and ultrafiltration, […] nm; type: biochemical
# T1 construct: gene PPO4; N-terminal GST tag cleaved off with HRV 3C; expressed in E. coli BL21(DE3)
# T1 sequence (C7FF05 1-379): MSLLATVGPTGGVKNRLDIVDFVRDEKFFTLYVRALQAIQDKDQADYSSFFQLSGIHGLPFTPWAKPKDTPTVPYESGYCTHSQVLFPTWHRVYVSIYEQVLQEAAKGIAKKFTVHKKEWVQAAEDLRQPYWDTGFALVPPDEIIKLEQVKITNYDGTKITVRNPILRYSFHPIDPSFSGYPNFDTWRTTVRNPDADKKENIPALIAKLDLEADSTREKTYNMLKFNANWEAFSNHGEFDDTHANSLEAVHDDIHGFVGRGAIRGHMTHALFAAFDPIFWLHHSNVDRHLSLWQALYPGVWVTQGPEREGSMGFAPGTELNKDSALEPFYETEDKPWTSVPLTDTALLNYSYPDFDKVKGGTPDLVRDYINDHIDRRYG
# EstA = target: T2, EstA (Clostridium botulinum, UniProt A5I055)
# T2 construct: gene lipA
# T2 sequence (A5I055 1-480): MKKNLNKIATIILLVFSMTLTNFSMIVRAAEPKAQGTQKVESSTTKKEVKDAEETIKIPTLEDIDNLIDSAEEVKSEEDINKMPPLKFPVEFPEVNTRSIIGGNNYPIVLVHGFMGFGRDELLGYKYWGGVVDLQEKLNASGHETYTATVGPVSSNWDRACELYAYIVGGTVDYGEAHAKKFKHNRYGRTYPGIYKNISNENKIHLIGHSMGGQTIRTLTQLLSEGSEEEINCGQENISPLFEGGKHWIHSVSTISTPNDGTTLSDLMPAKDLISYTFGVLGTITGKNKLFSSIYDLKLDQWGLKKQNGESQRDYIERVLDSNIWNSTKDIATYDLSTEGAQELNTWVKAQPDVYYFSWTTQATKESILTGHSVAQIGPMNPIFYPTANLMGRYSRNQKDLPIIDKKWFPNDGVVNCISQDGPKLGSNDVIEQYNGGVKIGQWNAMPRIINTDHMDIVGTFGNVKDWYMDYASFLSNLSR
Compound,"activity on dopamine after pre-incubation and ultrafiltration, 475 nm (aAbPPO4)","photometric, 4-nitrophenol release at 405 nm (EstA)"
O=S(O)O [sodium bisulphite],the loss of PPO activity of aAbPPO4 was verified by an activity assay with dopamine,
CCCC(=O)Oc1ccc([N+](=O)[O-])cc1 [para-nitrophenyl butyrate],,on the model substrate para-nitrophenyl butyrate (pNPB) compared to the uncleaved enzyme
